Laboratory results: US9138447B2, “Antimicrobial agent and method for the production thereof” (UNIVERSITY COLLEGE CARDIFF CONSULTANTS LTD., priority 2008, dated 2015)

Test system: methicillin resistant Staphylococcus aureus (MRSA)
Assay: Growth inhibition of MRSA
Assay type: cell-based
Text: Mupirocin (Pseudomonic acid A, or Bactroban) is the frontline topical antibiotic used to combat skin infections with gram positive bacteria and is also used in the eradication of MRSA from infected people. It was originally produced as Bactroban by GlaxoSmithKline, but now it is available generically within a number of different commercial formulations. MRSA strain 52 is susceptible to both the P. fluorescens mupirocin (Panel A) and Vietnamycin (BVAS; Panel B). However, MRSA strain 49 is representative of a number of emerging S. aureus strains that are resistant to mupirocin (Panel C).

In the case of `C/C(=C\C(=O)OCCCCCCCCC(=O)O)C[C@@H]1OC[C@H](C[C@@H]2O[C@H]2[C@@H](C)[C@H](C)O)[C@@H](O)[C@H]1O` [mupirocin, Mupirocin], the “Growth inhibition of mupirocin resistant MRSA (strain 49)” value (mupirocin resistant strain) is reported as “resistant” and the “Growth inhibition of MRSA strain 52” value (mupirocin susceptible strain, producer bacterium overlay) is reported as “susceptible”.
